Data reported in EPA's ToxValDB 9.5 (doi:10.2903/j.efsa.2011.2088).

Tests used:
[1] = system: Aphidius rhopalosiphi; assay: LR50; higher = less toxic; conditions: not reported; mortality
[2] = system: Typhlodromus pyri; assay: LR50; higher = less toxic; conditions: not reported; mortality
[3] = system: Apis mellifera; conditions: acute; duration: 48 hours; dermal; mortality
[4] = system: Anas platyrhynchos; conditions: short-term; oral; feed; mortality
[5] = system: Rattus norvegicus
[6] = system: Tagia sp.; conditions: mortality
[7] = system: Pimephales promelas; conditions: chronic/long-term; duration: 34 days; reproduction
[8] = system: Canidae; conditions: chronic; duration: 1 years; oral; diet; M/F; Beagle; hematological
[9] = system: Colinus virginianus; conditions: for LD50: acute, oral, mortality
[10] = system: Folsomia candida; conditions: chronic/long-term; duration: 28 days
[11] = system: Daphnia magna; conditions: chronic/long-term; duration: 21 days; mortality
[12] = system: Oncorhynchus mykiss; conditions: acute; duration: 96 hours; mortality
[13] = system: Bibionidae; conditions: chronic/long-term; duration: 28 days

`O=C(NC(=O)c1c(F)cccc1F)Nc1ccc(Oc2ccc(C(F)(F)F)cc2Cl)cc1F` [Flufenoxuron] was tested, and the LR50 [1] was greater than 386 g/ha, the LR50 [2] was 73 g/ha and the LD50 [3] was greater than 100 µg/piece. For the same compound, the LD50 [4] was greater than 1240 mg/kg-day, the LD50 ([5]; acute, oral, mortality) was greater than 3000 mg/kg-day and the NOAEL ([5]; reproduction developmental, growth) was 4.3 mg/kg-day. The LC50 ([6]; acute, duration: 14 days) was greater than 1000 mg/kg, the NOEC ([6]; chronic/long-term, duration: 56 days) was 5 mg/kg and the NOEC [7] was 0.00082 mg/L. For the same compound, the NOAEL [8] was no more than 3.8 mg/kg-day, the LD50 ([9]; diet) was greater than 1240 mg/kg-day and the LD50 [9] was greater than 2000 mg/kg-day. The NOEL ([9]; reproduction developmental) was 9.76 mg/kg-day, the NOEC [10] was 0.11 mg/kg and the NOEC [11] was 3.24e-06 mg/L. For the same compound, the LC50 [12] was greater than 5 ng/mL and the NOEC [13] was 3.6e-05 mg/L.
